Measured values from patent publication US20230303549A1, “SUBSTITUTED HETEROARYLOXYPYRIDINES, THE SALTS THEREOF AND THEIR USE AS HERBICIDAL AGENTS” (Bayer Aktiengesellschaft, priority 2020, published 2023).

Assays:
Type in all cases: in vivo
[1] = tested on: Abutilon theophrasti (ABUTH); assay: Post-emergence herbicidal efficacy at 320 g/ha, greenhouse pot test; settings: visual rating vs untreated control after about 3 weeks
Summary of the method: (§1)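 Applied onto green plant parts as suspension or emulsion at a 600 L/ha water rate, containing 0.5% additive. Potted weeds in sandy loam were treated at one leaf and assessed visually versus controls about three weeks later.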

[2] = tested on: Alopecurus myosuroides (ALOMY); assay: as above; settings: visual rating vs untreated control after about 3 weeks
Summary of the method: as §1

[3] = tested on: Amaranthus retroflexus (AMARE); assay: as above; settings: visual rating vs untreated control after about 3 weeks
Summary of the method: as §1

Bassia scoparia (KCHSC) [4] = assay: as above; settings: visual rating vs untreated control after about 3 weeks
Summary of the method: as §1

Poa annua (POAAN) [5] = assay: as above; settings: visual rating vs untreated control after about 3 weeks
Summary of the method: as §1

Stellaria media (STEME) [6] = assay: as above; settings: visual rating vs untreated control after about 3 weeks
Summary of the method: as §1

Veronica persica (VERPE) [7] = assay: as above; settings: 320 g/ha, visual rating vs untreated control after about 3 weeks
Summary of the method: as §1

[8] = tested on: Amaranthus retroflexus (AMARE); assay: Post-emergence herbicidal efficacy at 80 g/ha, greenhouse pot test; settings: visual rating vs untreated control after about 3 weeks
Experimental: (§2) Seeds of monocotyledonous and dicotyledonous weeds and crop plants were placed in sandy loam in plastic or organic planting pots, covered with soil and cultivated in a greenhouse under controlled growth conditions. 2 to 3 weeks after sowing, the test plants were treated at the one-leaf stage. The compounds of the invention, formulated in the form of wettable powders (WP) or as emulsion concentrates (EC), were then sprayed onto the green parts of the plants as aqueous suspension or emulsion with addition of 0.5% additive at a water application rate of 600 l/ha (converted). After the test plants had been kept in the greenhouse under optimum growth conditions for about 3 weeks, the activity of the preparations was rated visually in comparison to untreated controls. For example, 100% activity=the plants have died, 0% activity=like control plants. Tables B1 to B6 below show the effects of selected compounds of the general formula (I) according to Table 1 on various harmful plants and an application rate corresponding to 80 g/ha, which were obtained by the experimental procedure mentioned above.

Viola tricolor (VIOTR) [9] = assay: as above; settings: visual rating vs untreated control after about 3 weeks
Experimental: as §2

[10] = tested on: Abutilon theophrasti (ABUTH); assay: Pre-emergence herbicide efficacy at 320 g/ha, greenhouse pot test; settings: visual scoring vs untreated control after about 3 weeks
Summary of the method: (§3)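 Seeds sown in sandy loam, covered; formulated compound (WP or EC, 0.5% additive) applied to soil surface at 600 L/ha water; pots kept in greenhouse under good growth conditions; visual % damage scored at about 3 weeks relative to untreated.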

[11] = tested on: Alopecurus myosuroides (ALOMY); assay: as above; settings: visual scoring vs untreated control after about 3 weeks
Summary of the method: as §3

[12] = tested on: Amaranthus retroflexus (AMARE); assay: as above; settings: visual scoring vs untreated control after about 3 weeks
Summary of the method: as §3

Bassia scoparia (KCHSC) [13] = assay: as above
Summary of the method: as §3

[14] = tested on: Echinochloa crus-galli (ECHCG); assay: as above; settings: visual scoring vs untreated control after about 3 weeks
Summary of the method: as §3

Lolium rigidum (LOLRI) = assay: as above; settings: visual scoring vs untreated control after about 3 weeks
Summary of the method: as §3

[15] = tested on: Matricaria inodora (MATIN); assay: as above; settings: visual scoring vs untreated control after about 3 weeks
Summary of the method: as §3

Poa annua (POAAN) [16] = assay: as above; settings: visual scoring vs untreated control after about 3 weeks
Summary of the method: as §3

Setaria viridis (SETVI) [17] = assay: as above; settings: visual scoring vs untreated control after about 3 weeks
Summary of the method: as §3

Stellaria media (STEME) [18] = assay: as above; settings: visual scoring vs untreated control after about 3 weeks
Summary of the method: as §3

Veronica persica (VERPE) [19] = assay: as above; settings: visual scoring vs untreated control after about 3 weeks
Summary of the method: as §3

[20] = tested on: Abutilon theophrasti (ABUTH); assay: Pre-emergence herbicide efficacy at 80 g/ha, greenhouse pot test; settings: visual scoring vs untreated control after about 3 weeks
Text: (§4) Seeds of monocotyledonous and dicotyledonous weed plants and crop plants were placed in plastic or organic planting pots and covered with soil. The compounds of the invention, formulated in the form of wettable powders (WP) or as emulsion concentrates (EC), were then applied to the surface of the covering soil as aqueous suspension or emulsion with addition of 0.5% additive at a water application rate of […] (converted). After the treatment, the pots were placed in a greenhouse and kept under good growth conditions for the test plants. After about 3 weeks, the effect of the preparations was scored visually in comparison with untreated controls as percentages. For example, 100% activity=the plants have died, 0% activity=like control plants. Tables D1 to D12 below show the effects of selected compounds of the general formula (I) according to Table 1 on various harmful plants and an application rate corresponding to 80 g/ha, which were obtained by the experimental procedure mentioned above.

[21] = tested on: Alopecurus myosuroides (ALOMY); assay: as above; settings: visual scoring vs untreated control after about 3 weeks
Text: as §4

[22] = tested on: Amaranthus retroflexus (AMARE); assay: as above; settings: visual scoring vs untreated control after about 3 weeks
Text: as §4

[23] = tested on: Matricaria inodora (MATIN); assay: as above; settings: visual scoring vs untreated control after about 3 weeks
Text: as §4

[24] = tested on: Polygonum convolvulus (POLCO); assay: as above; settings: visual scoring vs untreated control after about 3 weeks
Text: as §4

Setaria viridis (SETVI) [25] = assay: as above; settings: visual scoring vs untreated control after about 3 weeks
Text: as §4

Veronica persica (VERPE) [26] = assay: as above; settings: visual scoring vs untreated control after about 3 weeks
Text: as §4

Viola tricolor (VIOTR) [27] = assay: as above; settings: visual scoring vs untreated control after about 3 weeks
Text: as §4

[28] = tested on: Digitaria sanguinalis (DIGSA); assay: Pre-emergence herbicide efficacy at 320 g/ha, greenhouse pot test; settings: visual scoring vs untreated control after about 3 weeks
Summary of the method: as §3

Veronica persica (VERPE) [29] = assay: Post-emergence herbicidal efficacy at 80 g/ha, greenhouse pot test; settings: visual rating vs untreated control after about 3 weeks
Experimental: as §2

[30] = tested on: Polygonum convolvulus (POLCO); assay: as above; settings: visual rating vs untreated control after about 3 weeks
Experimental: as §2

[31] = 320 g/ha, visual scoring vs untreated control after about 3 weeks

| Compound | Post-emergence efficacy against Abutilon theophrasti (ABUTH) [1] [%] | Post-emergence efficacy against Amaranthus retroflexus (AMARE) [3] [%] | Post-emergence efficacy against Bassia scoparia (KCHSC) (Bassia scoparia (KCHSC) [4]) [%] | Post-emergence action against Stellaria media (STEME) (Stellaria media (STEME) [6]) [%] | Post-emergence efficacy against Veronica persica (VERPE) (Veronica persica (VERPE) [7]) [%] | Post-emergence efficacy against Amaranthus retroflexus (AMARE) [8] [%] | Post-emergence efficacy against Viola tricolor (VIOTR) (Viola tricolor (VIOTR) [9]) [%] | Pre-emergence efficacy against Abutilon theophrasti (ABUTH) [10] [%] | Pre-emergence efficacy against Amaranthus retroflexus (AMARE) [12] [%] | Pre-emergence efficacy against Matricaria inodora (MATIN) [15] [%] | Pre-emergence efficacy against Setaria viridis (SETVI) (Setaria viridis (SETVI) [17]) [%] | Pre-emergence efficacy against Stellaria media (STEME) (Stellaria media (STEME) [18]) [%] | Pre-emergence efficacy against Veronica persica (VERPE) (Veronica persica (VERPE) [19]) [%] | Pre-emergence efficacy against Abutilon theophrasti (ABUTH) [20] [%] | Pre-emergence efficacy against Alopecurus myosuroides (ALOMY) [21] [%] | Pre-emergence efficacy against Amaranthus retroflexus (AMARE) [22] [%] | Pre-emergence efficacy against Polygonum convolvulus (POLCO) [24] [%] | Pre-emergence efficacy against Setaria viridis (SETVI) (Setaria viridis (SETVI) [25]) [%] | Pre-emergence efficacy against Veronica persica (VERPE) (Veronica persica (VERPE) [26]) [%] | Pre-emergence efficacy against Viola tricolor (VIOTR) (Viola tricolor (VIOTR) [27]) [%] | also measured |
| --- | --- | --- | --- | --- | --- | --- | --- | --- | --- | --- | --- | --- | --- | --- | --- | --- | --- | --- | --- | --- | --- |
| Cc1cc(C)c(-c2cc(C(F)F)no2)c(Oc2ncc(Cl)cn2)n1 [Example I-1] | 90 | 100 | 90 | 100 | 100 | 100 | 90 | 100 | 100 | 100 | 100 | 100 | 100 | 80 | 90 | 100 | 90 | 80 | 90 | 90 | Post-emergence efficacy against Alopecurus myosuroides (ALOMY) [2]: 90%; Post-emergence efficacy against Poa annua (POAAN) (Poa annua (POAAN) [5]): 90%; Pre-emergence efficacy against Alopecurus myosuroides (ALOMY) [11]: 100%; Pre-emergence efficacy against Bassia scoparia (KCHSC) (Bassia scoparia (KCHSC) [13]; [31]): 90%; Pre-emergence efficacy against Echinochloa crus-galli (ECHCG) [14]: 100%; Pre-emergence efficacy against Lolium rigidum (LOLRI) (Lolium rigidum (LOLRI)): 90%; Pre-emergence efficacy against Poa annua (POAAN) (Poa annua (POAAN) [16]): 100%; Pre-emergence efficacy against Matricaria inodora (MATIN) [23]: 100% |
| Cc1cc(C)c(-c2cc(C(F)(F)Cl)no2)c(Oc2ncc(Cl)cn2)n1 [Example I-8] | 90 | 100 | 90 | 90 | 100 | 100 | 90 | 100 | 100 | 100 | 90 | 100 | 100 | 100 | 90 | 100 | 90 | 100 | 80 | 90 | Post-emergence efficacy against Alopecurus myosuroides (ALOMY) [2]: 100%; Pre-emergence efficacy against Alopecurus myosuroides (ALOMY) [11]: 100%; Pre-emergence efficacy against Bassia scoparia (KCHSC) (Bassia scoparia (KCHSC) [13]; [31]): 100%; Pre-emergence efficacy against Digitaria sanguinalis (DIGSA) [28]: 100%; Pre-emergence efficacy against Poa annua (POAAN) (Poa annua (POAAN) [16]): 100% |
| Cc1cc(C)c(-c2cc(C(F)F)no2)c(Oc2ccc(C#N)cn2)n1 [Example I-292] | 90 | 100 | 90 | 100 | 100 | 90 | 90 | 90 | 100 | 100 | 90 | 100 | 90 | – | 80 | 100 | – | – | 90 | 90 | Post-emergence efficacy against Poa annua (POAAN) (Poa annua (POAAN) [5]): 100%; Post-emergence efficacy against Veronica persica (VERPE) (Veronica persica (VERPE) [29]): 90%; Pre-emergence efficacy against Bassia scoparia (KCHSC) (Bassia scoparia (KCHSC) [13]; dosage 1280 g/ha in Table C6, visual scoring after about 3 weeks): 100% |
| Cc1cc(C)c(-c2cc(C(F)F)no2)c(Oc2ccc(F)cn2)n1 [Example I-293] | – | – | – | – | – | 100 | – | – | – | – | – | – | – | 90 | 90 | 100 | 80 | 100 | 80 | 90 | Post-emergence efficacy against Polygonum convolvulus (POLCO) [30]: 100%; Pre-emergence efficacy against Matricaria inodora (MATIN) [23]: 100% |
